These are literature values, as cited in US20060063742A1, “Method of treatment for or protection against lymphedema” (priority 2004, published 2006).

For one series, the system named is dogs. The settings on record: intravenously, doses higher than 3750 mg/kg.
The next series relates to humans. Conditions: doses exceeding 40 g/m^2.
In a further series the test system is mice. Conditions: intravenously, doses higher than 3750 mg/kg.

For `O=S(=O)([O-])CCSSCCS(=O)(=O)[O-].[Na+].[Na+]` [Dimesna, disodium 2,2′-dithiobis ethane sulfonate], the adverse effects result in the series on dogs, in the series on humans and in the series on mice was “no adverse effects” throughout.

With `[Cl-].[Na+]` [common table salt], the “accepted oral LD50” value is 3750 mg/kg.
